Assay results: PMC5218480 (PLoS ONE, 2017)

System: MV-4-11 cells
Assay: Gene expression microarray analysis (Affymetrix PrimeView) and GSEA
Assay type: cell-based, human
Design: RFU PODN (11730768_x_at) / Fold change /veh PODN (11730768_x_at) / RFU LINC00158 (11744669_a_at) / Fold change /veh LINC00158 (11744669_a_at) / RFU DUSP10 (11751237_a_at) / Fold change /veh DUSP10 (11751237_a_at) / RFU ID3 (11757404_x_at) / Fold change /veh ID3 (11757404_x_at) / RFU PLEKHG5 (11737974_s_at) / Fold change /veh PLEKHG5 (11737974_s_at) / RFU LRRC4B (11730491_at) / Fold change /veh LRRC4B (11730491_at) / RFU GIMAP4 (11747438_a_at) / Fold change /veh GIMAP4 (11747438_a_at) / RFU KRT8 (11758183_x_at) / Fold change /veh KRT8 (11758183_x_at) / RFU CNN1 (11734310_a_at) / Fold change /veh CNN1 (11734310_a_at) / RFU VPS37D (11726825_at) / Fold change /veh VPS37D (11726825_at) / RFU C10orf10 (11716522_x_at) / Fold change /veh C10orf10 (11716522_x_at) / RFU KIR2DL2 /// KIR2DL4 /// KIR2DL5A /// KIR2DL5B /// KIR2DS1 /// KIR2DS2 /// KIR2DS3 /// KIR2DS4 /// KIR3DL3 /// KIR3DL3 /// KIR3DS1 (11738374_at) / Fold change /veh KIR2DL2 /// KIR2DL4 /// KIR2DL5A /// KIR2DL5B /// KIR2DS1 /// KIR2DS2 /// KIR2DS3 /// KIR2DS4 /// KIR3DL3 /// KIR3DL3 /// KIR3DS1 (11738374_at) / RFU C1QL1 (11718748_at) / Fold change /veh C1QL1 (11718748_at) / RFU TMPRSS4 (11747572_a_at) / Fold change /veh TMPRSS4 (11747572_a_at) / RFU HAMP (11756126_x_at) / Fold change /veh HAMP (11756126_x_at) / RFU RNFT2 (11725882_a_at) / Fold change /veh RNFT2 (11725882_a_at) / RFU NR4A2 (11747474_a_at) / Fold change /veh NR4A2 (11747474_a_at) / RFU ABCC12 (11746883_a_at) / Fold change /veh ABCC12 (11746883_a_at) / RFU TMEM136 (11760407_x_at) / Fold change /veh TMEM136 (11760407_x_at) / RFU CLDN22 /// WWC2 (11732394_at) / Fold change /veh CLDN22 /// WWC2 (11732394_at) / RFU HLA-DPB1 (11760878_x_at) / Fold change /veh HLA-DPB1 (11760878_x_at) / RFU SPINT1 (11716480_a_at) / Fold change /veh SPINT1 (11716480_a_at) / RFU GAP43 (11754022_s_at) / Fold change /veh GAP43 (11754022_s_at) / RFU A4GNT (11735810_at) / Fold change /veh A4GNT (11735810_at) / RFU PRB3 (11715151_x_at) / Fold change /veh PRB3 (11715151_x_at) / RFU TUBB4B (11761932_at) / Fold change /veh TUBB4B (11761932_at) / RFU CAPN14 (11732068_a_at) / Fold change /veh CAPN14 (11732068_a_at) / RFU TMCC2 (11721928_a_at) / Fold change /veh TMCC2 (11721928_a_at) / RFU IRGQ (11745062_a_at) / Fold change /veh IRGQ (11745062_a_at) / RFU FAM174B (11720279_a_at) / Fold change /veh FAM174B (11720279_a_at) / RFU TMPRSS4 (11748680_a_at) / Fold change /veh TMPRSS4 (11748680_a_at) / RFU FAM212B (11763350_a_at) / Fold change /veh FAM212B (11763350_a_at) / RFU PLEKHG5 (11743358_a_at) / Fold change /veh PLEKHG5 (11743358_a_at) / RFU ZSCAN30 (11745921_a_at) / Fold change /veh ZSCAN30 (11745921_a_at) / RFU CMKLR1 (11741424_a_at) / Fold change /veh CMKLR1 (11741424_a_at) / RFU LOC101060620 /// MAPK8IP1 (11723275_at) / Fold change /veh LOC101060620 /// MAPK8IP1 (11723275_at) / RFU SPTSSB (11747773_x_at) / Fold change /veh SPTSSB (11747773_x_at) / RFU PRSS12 (11739890_at) / Fold change /veh PRSS12 (11739890_at) / RFU BIN1 (11741810_x_at) / Fold change /veh BIN1 (11741810_x_at) / RFU WNT11 (11732464_a_at) / Fold change /veh WNT11 (11732464_a_at) / RFU C10orf10 (11716521_a_at) / Fold change /veh C10orf10 (11716521_a_at) / RFU C5orf56 (11738089_at) / Fold change /veh C5orf56 (11738089_at) / RFU CYB561 (11721691_x_at) / Fold change /veh CYB561 (11721691_x_at) / RFU ANKRD19P (11752326_a_at) / Fold change /veh ANKRD19P (11752326_a_at) / RFU OR2T12 /// OR2T33 /// OR2T8 (11738714_s_at) / Fold change /veh OR2T12 /// OR2T33 /// OR2T8 (11738714_s_at) / RFU VCAN (11748164_a_at) / Fold change /veh VCAN (11748164_a_at) / RFU JSRP1 (11732532_at) / Fold change /veh JSRP1 (11732532_at) / RFU KRTAP10-11 (11738290_x_at) / Fold change /veh KRTAP10-11 (11738290_x_at) / RFU MYO3A (11730013_a_at) / Fold change /veh MYO3A (11730013_a_at) / RFU EBF3 (11725865_a_at) / Fold change /veh EBF3 (11725865_a_at) / RFU CAMK2N1 (11719241_x_at) / Fold change /veh CAMK2N1 (11719241_x_at) / RFU C5orf56 (11738088_a_at) / Fold change /veh C5orf56 (11738088_a_at) / RFU OLFML3 (11715873_a_at) / Fold change /veh OLFML3 (11715873_a_at) / RFU LOC100653217 /// NTM (11731650_a_at) / Fold change /veh LOC100653217 /// NTM (11731650_a_at) / RFU MAPK11 (11762145_a_at) / Fold change /veh MAPK11 (11762145_a_at) / RFU FIZ1 (11724087_x_at) / Fold change /veh FIZ1 (11724087_x_at) / RFU OASL (11726364_x_at) / Fold change /veh OASL (11726364_x_at) / RFU SOX15 (11748057_x_at) / Fold change /veh SOX15 (11748057_x_at) / RFU CD79A (11719716_a_at) / Fold change /veh CD79A (11719716_a_at) / RFU HIST1H1D (11736915_at) / Fold change /veh HIST1H1D (11736915_at) / RFU CASKIN2 (11723855_a_at) / Fold change /veh CASKIN2 (11723855_a_at) / RFU LOC730098 (11760151_x_at) / Fold change /veh LOC730098 (11760151_x_at) / RFU OR4N2 (11742367_at) / Fold change /veh OR4N2 (11742367_at) / RFU PRRT2 (11749266_a_at) / Fold change /veh PRRT2 (11749266_a_at) / RFU SNX32 (11753110_a_at) / Fold change /veh SNX32 (11753110_a_at) / RFU CDHR5 (11726645_a_at) / Fold change /veh CDHR5 (11726645_a_at) / RFU RCAN1 (11760418_a_at) / Fold change /veh RCAN1 (11760418_a_at) / RFU FAM167A (11723789_a_at) / Fold change /veh FAM167A (11723789_a_at) / RFU FAM26E (11764081_at) / Fold change /veh FAM26E (11764081_at) / RFU ISYNA1 (11749810_s_at) / Fold change /veh ISYNA1 (11749810_s_at) / RFU ACY1 (11761880_at) / Fold change /veh ACY1 (11761880_at) / RFU 11764098_at / Fold change /veh 11764098_at / RFU SAMD14 (11745864_x_at) / Fold change /veh SAMD14 (11745864_x_at) / RFU NPB (11741838_a_at) / Fold change /veh NPB (11741838_a_at) / RFU TMPRSS6 (11731388_a_at) / Fold change /veh TMPRSS6 (11731388_a_at) / RFU KRTAP10-2 (11738614_at) / Fold change /veh KRTAP10-2 (11738614_at) / RFU ARHGAP8 /// PRR5-ARHGAP8 (11727945_x_at) / Fold change /veh ARHGAP8 /// PRR5-ARHGAP8 (11727945_x_at) / RFU KRTAP5-7 /// NADSYN1 (11734609_at) / Fold change /veh KRTAP5-7 /// NADSYN1 (11734609_at) / RFU RASL12 (11751679_a_at) / Fold change /veh RASL12 (11751679_a_at) / RFU CDKN2B (11736163_a_at) / Fold change /veh CDKN2B (11736163_a_at) / RFU PRF1 (11729649_at) / Fold change /veh PRF1 (11729649_at) / RFU, ZNF638 /// ZNF638-IT1 / Fold change vs veh, ZNF638 /// ZNF638-IT1 / RFU, PANK3 / Fold change vs veh, PANK3 / RFU, SH3YL1 / Fold change vs veh, SH3YL1 / RFU, ZEB2 / Fold change vs veh, ZEB2 / RFU, NRIP1 / Fold change vs veh, NRIP1 / RFU, PTTG1IP / Fold change vs veh, PTTG1IP / RFU, CAPN2 / Fold change vs veh, CAPN2 / RFU, MED14 / Fold change vs veh, MED14 / RFU, SNORA58 / Fold change vs veh, SNORA58 / RFU, C1orf63 / Fold change vs veh, C1orf63 / RFU, LRRFIP1 / Fold change vs veh, LRRFIP1 / RFU, NDUFAF7 / Fold change vs veh, NDUFAF7 / RFU, SLC12A2 / Fold change vs veh, SLC12A2 / RFU, IBTK / Fold change vs veh, IBTK / RFU, ESF1 / Fold change vs veh, ESF1 / Fold change vs veh, TMEM50B / RFU, TAOK1 / Fold change vs veh, TAOK1 / RFU, ACBD3 / Fold change vs veh, ACBD3 / RFU, TMA16 / Fold change vs veh, TMA16 / RFU, RWDD3 / Fold change vs veh, RWDD3 / RFU, BCAT1 / Fold change vs veh, BCAT1 / RFU, EDEM3 / Fold change vs veh, EDEM3 / RFU, TMEM33 / Fold change vs veh, TMEM33 / RFU, WDR75 / Fold change vs veh, WDR75 / RFU, AHCTF1 / Fold change vs veh, AHCTF1 / RFU, TFRC / Fold change vs veh, TFRC / RFU, ZDHHC17 / Fold change vs veh, ZDHHC17 / RFU, NOM1 / Fold change vs veh, NOM1 / RFU, ARL8B / Fold change vs veh, ARL8B / RFU, ZBTB11 / Fold change vs veh, ZBTB11 / RFU, TAMM41 / Fold change vs veh, TAMM41 / RFU, KIAA1704 /// LOC100996395 / Fold change vs veh, KIAA1704 /// LOC100996395 / RFU, ING1 / Fold change vs veh, ING1 / RFU, TRMT61B / Fold change vs veh, TRMT61B / RFU, FUBP3 / Fold change vs veh, FUBP3 / RFU, TP53 / Fold change vs veh, TP53 / RFU, TNKS2 / Fold change vs veh, TNKS2 / RFU, ZFP14 / Fold change vs veh, ZFP14 / RFU, ACTR2 / Fold change vs veh, ACTR2 / RFU, PPP3R1 / Fold change vs veh, PPP3R1 / RFU, PIK3R1 / Fold change vs veh, PIK3R1 / RFU, HNRNPA1 / Fold change vs veh, HNRNPA1 / RFU, RNF170 / Fold change vs veh, RNF170 / RFU, ZNF28 / Fold change vs veh, ZNF28 / RFU, RNGTT / Fold change vs veh, RNGTT / RFU, OGT / Fold change vs veh, OGT / RFU, BRD1 / Fold change vs veh, BRD1 / RFU, MARS / Fold change vs veh, MARS / RFU, ZNF655 / Fold change vs veh, ZNF655 / RFU, FAHD1 / Fold change vs veh, FAHD1 / RFU, BDP1 / Fold change vs veh, BDP1 / RFU, LRRCC1 / Fold change vs veh, LRRCC1 / RFU, ARID1A / Fold change vs veh, ARID1A / RFU, ZNF146 / Fold change vs veh, ZNF146 / RFU, ZNF330 / Fold change vs veh, ZNF330 / RFU, GPN3 / Fold change vs veh, GPN3 / RFU, C9orf123 / Fold change vs veh, C9orf123 / RFU, N4BP2L2 / Fold change vs veh, N4BP2L2 / RFU, ARFIP1 / Fold change vs veh, ARFIP1 / RFU, FAM179B / Fold change vs veh, FAM179B / RFU, BCL10 / Fold change vs veh, BCL10 / RFU, UHRF1BP1L / Fold change vs veh, UHRF1BP1L / RFU, BET1 / Fold change vs veh, BET1 / RFU, CNOT2 / Fold change vs veh, CNOT2 / RFU, ZNF268 / Fold change vs veh, ZNF268 / Fold change vs veh, ZNF507 / RFU, DGCR2 / Fold change vs veh, DGCR2 / RFU, WDSUB1 / Fold change vs veh, WDSUB1 / Fold change vs veh, HSP90B1 /// MIR3652 / RFU, ADSS / Fold change vs veh, ADSS / RFU, GK / Fold change vs veh, GK / RFU, ZNF148 / Fold change vs veh, ZNF148 / RFU, TAF9 / Fold change vs veh, TAF9 / RFU, SLC1A5 / Fold change vs veh, SLC1A5 / RFU, SLMO2 / Fold change vs veh, SLMO2 / RFU, ABCC4 / Fold change vs veh, ABCC4 / RFU, LOC101060439 /// RAP1B / Fold change vs veh, LOC101060439 /// RAP1B / RFU, RFX7 / Fold change vs veh, RFX7 / RFU, GTPBP10 / Fold change vs veh, GTPBP10 / RFU, CNEP1R1 / Fold change vs veh, CNEP1R1 / RFU, BIVM-ERCC5 /// ERCC5 / Fold change vs veh, BIVM-ERCC5 /// ERCC5 / RFU, ILF3 / Fold change vs veh, ILF3 / RFU 11762660_at / Fold change /veh 11762660_at / RFU VCAN (11757783_s_at) / Fold change /veh VCAN (11757783_s_at) / RFU DDX43 (11728927_at) / Fold change /veh DDX43 (11728927_at) / RFU KRT8 (11758188_x_at) / Fold change /veh KRT8 (11758188_x_at) / RFU NKD1 (11759106_at) / Fold change /veh NKD1 (11759106_at) / RFU SRD5A1 (11742802_a_at) / Fold change /veh SRD5A1 (11742802_a_at) / RFU TPSAB1 /// TPSB2 (11721975_s_at) / Fold change /veh TPSAB1 /// TPSB2 (11721975_s_at) / RFU GSTM3 (11746129_a_at) / Fold change /veh GSTM3 (11746129_a_at) / RFU IL23R (11737362_x_at) / Fold change /veh IL23R (11737362_x_at) / RFU TMEM51 (11727254_a_at) / Fold change /veh TMEM51 (11727254_a_at) / RFU PIWIL2 (11732686_x_at) / Fold change /veh PIWIL2 (11732686_x_at) / RFU ORM1 (11744905_x_at) / Fold change /veh ORM1 (11744905_x_at) / RFU CCDC152 (11743942_at) / Fold change /veh CCDC152 (11743942_at) / RFU ECM1 (11717891_a_at) / Fold change /veh ECM1 (11717891_a_at) / RFU IL23R (11748794_a_at) / Fold change /veh IL23R (11748794_a_at) / RFU TNFAIP8L3 (11732012_x_at) / Fold change /veh TNFAIP8L3 (11732012_x_at) / RFU MBOAT4 (11741988_at) / Fold change /veh MBOAT4 (11741988_at) / RFU 11764193_at / Fold change /veh 11764193_at / RFU TMEM53 (11763286_at) / Fold change /veh TMEM53 (11763286_at) / RFU MAGEB2 (11727129_at) / Fold change /veh MAGEB2 (11727129_at) / RFU TMEM200A (11744735_a_at) / Fold change /veh TMEM200A (11744735_a_at) / RFU CCDC152 (11751479_a_at) / Fold change /veh CCDC152 (11751479_a_at) / RFU FAM211A (11726209_a_at) / Fold change /veh FAM211A (11726209_a_at) / RFU RGS16 (11746705_a_at) / Fold change /veh RGS16 (11746705_a_at) / RFU VCAN (11755009_s_at) / Fold change /veh VCAN (11755009_s_at) / RFU RHOB (11743442_s_at) / Fold change /veh RHOB (11743442_s_at) / RFU RGS16 (11720943_a_at) / Fold change /veh RGS16 (11720943_a_at) / RFU RGS16 (11720944_at) / Fold change /veh RGS16 (11720944_at) / RFU, VPS4B / Fold change vs veh, VPS4B / RFU, CREB1 / Fold change vs veh, CREB1 / RFU, DNAJC13 / Fold change vs veh, DNAJC13 / RFU, GNAQ / Fold change vs veh, GNAQ / RFU, CDK5R1 / Fold change vs veh, CDK5R1 / RFU, ZRANB3 / Fold change vs veh, ZRANB3 / RFU, CUL4A / Fold change vs veh, CUL4A / RFU, CCNY / Fold change vs veh, CCNY / RFU, UFL1 / Fold change vs veh, UFL1 / RFU, COG3 / Fold change vs veh, COG3 / RFU, DIAPH2 / Fold change vs veh, DIAPH2 / RFU, SKA2 / Fold change vs veh, SKA2 / RFU, AFF3 / Fold change vs veh, AFF3 / RFU, LMF1 / Fold change vs veh, LMF1 / RFU, IPO11 / Fold change vs veh, IPO11 / RFU, DFFB / Fold change vs veh, DFFB / RFU, FOXP1 / Fold change vs veh, FOXP1 / RFU, CARD8 / Fold change vs veh, CARD8 / RFU, STRN3 / Fold change vs veh, STRN3 / RFU, ADK / Fold change vs veh, ADK / RFU, RASSF2 / Fold change vs veh, RASSF2 / RFU, WIPF1 / Fold change vs veh, WIPF1 / RFU, LARP1B / Fold change vs veh, LARP1B / RFU, RASA1 / Fold change vs veh, RASA1 / RFU, RB1 / Fold change vs veh, RB1 / RFU, PPFIA1 / Fold change vs veh, PPFIA1 / RFU, MAT2A / Fold change vs veh, MAT2A / RFU, CCT5 / Fold change vs veh, CCT5 / RFU, WDR92 / Fold change vs veh, WDR92 / RFU, CUX1 / Fold change vs veh, CUX1 / RFU, TTC7A / Fold change vs veh, TTC7A / RFU, TMEM135 / Fold change vs veh, TMEM135 / RFU, DEPTOR / Fold change vs veh, DEPTOR / RFU, CPM / Fold change vs veh, CPM / RFU, DNAJB6 / Fold change vs veh, DNAJB6 / RFU, CACNA2D3 / Fold change vs veh, CACNA2D3 / RFU, DTX4 / Fold change vs veh, DTX4 / RFU, TFCP2 / Fold change vs veh, TFCP2 / RFU, GMCL1 /// GMCL1P1 / Fold change vs veh, GMCL1 /// GMCL1P1 / RFU, AEBP2 / Fold change vs veh, AEBP2 / RFU, SNHG1 /// SNORD22 /// SNORD25 /// SNORD26 /// SNORD27 /// SNORD28 /// SNORD29 /// SNORD31 / Fold change vs veh, SNHG1 /// SNORD22 /// SNORD25 /// SNORD26 /// SNORD27 /// SNORD28 /// SNORD29 /// SNORD31 / Fold change (Aza/veh), C12orf56 (ProbeSet 11735607_a_at) / Fold change (ACY-1035/veh), C12orf56 (ProbeSet 11735607_a_at) / Fold change (Aza/veh), FGFR1OP (ProbeSet 11751329_s_at) / Fold change (ACY-1035/veh), FGFR1OP (ProbeSet 11751329_s_at) / Fold change (Aza/veh), VPS36 (ProbeSet 11739960_a_at) / Fold change (ACY-1035/veh), VPS36 (ProbeSet 11739960_a_at) / RFU SYPL1 (11715823_x_at) / Fold change /veh SYPL1 (11715823_x_at) / RFU IGFBP7 (11715501_s_at) / Fold change /veh IGFBP7 (11715501_s_at) / RFU REEP3 (11722064_at) / Fold change /veh REEP3 (11722064_at) / RFU IGLL1 (11728026_x_at) / Fold change /veh IGLL1 (11728026_x_at): dose or concentration left out as unconfirmed
Details: MV-4-11 cells, 48 hours

## Nc1ncn([C@@H]2O[C@H](CO)[C@@H](O)[C@H]2O)c(=O)n1 [azacitidine]
  Fold change /veh NPB (11741838_a_at): 0.96
